Laboratory results reported in patent publication US8486965B2, “Pyrrolo[2,3-b]pyridine derivative and use thereof for treatment of cancer” (Takeda Pharmaceutical Company Limited, priority 2009, dated 2013).

Tested on: Hedgehog signal transduction system (Smo)
Assay: Gli reporter luciferase assay in NIH-3T3/Gli reporter cells stimulated with mouse Shh-N end fragment
Assay type: cell-based
Conditions: NIH3T3; 1 μM compound; NIH-3T3/Gli reporter cells with mouse Shh-N end fragment culture supernatant, 48 hr; luciferase activity, control without compound as 100; read-out: inhibition rate (%) at 1 μM
Description: Inhibition of the Hedgehog signal transduction system can be measured, for example, by quantifying a decrease in the expression level of a reporter gene connected to the downstream of the Gli binding site based on the fluorescence intensity according to the following Experimental Example 1. Alternatively, it can be measured by quantifying the expression of Gli-1 mRNA in a cell extract by quantitative PCR method and the like. A compound that inhibits Hedgehog signal targets Smo, which can be confirmed, for example, by binding fluorescence-labeled Cyclopamine and a test compound to cells expressing Smo, measuring the fluorescence level of the cell, and comparing the value with that without addition of a test compound to find a decrease.
Gli reporter plasmid was constructed by inserting 8×Gli-binding site and chicken δ-crystalline promoter into the upstream of luc+ of pGL3 (Promega).
prepared in reference to the base sequence described in GenBank accession No.; X02187, and chicken genome DNA (Clontech) as a template. PCR reaction was performed using Pfu Turbo (Stratagene) and following the attached protocol. The obtained 108 bp fragment was digested with restriction enzymes BglII and HindIII, and inserted into BglII-HindIII site of pGL3 to give plasmid pGL3/δ-cry promoter.
As 8× Gli-binding site, a sequence containing eight 9-bp Gli bound consensus sequences (GACCACCCA) described in Yoon et al., J. Biol. Chem., vol. 273, pages 3496-3501 (1998) was prepared from synthetic DNA. That is, two synthetic DNAs,
were heat treated at 95° C. for 2 minutes, and incubated at 37° C. for 1 hr for annealing to give a double stranded DNA of the above-mentioned two synthetic DNAs. The obtained double stranded DNA was digested with restriction enzymes BglII and KpnI, and the obtained DNA fragment was inserted into BglII-KpnI site of pGL3/δ-cry promoter to construct plasmid pGL3/δ-cry promoter, 8× Gli binding site, i.e., Gli reporter plasmid. 2. Construction of Plasmid for Expression of Mouse Shh-N End Fragment
As a material for construction of plasmid for Shh-N end fragment expression, mouse Shh cDNA was cloned at first.
The mouse Shh cDNA was cloned by Nested PCR method using mouse 11-day fetus cDNA (Clontech) as a template. The primer sequence was prepared in reference to the base sequence described in GenBank accession No.; NM_009170.
Using the mouse Shh cDNA sequence obtained as mentioned above as a template, a partial cDNA sequence wherein stop codon (TGA) was added to 3′-terminal of cDNA sequence encoding 1st to 198th amino acid sequence of mouse Shh was obtained by PCR method. As the primer set,
In the manner mentioned above, a plasmid for mouse Shh-N end fragment expression, pcDNA3.1/mShh-N, was constructed.
HEK293 cells were grown in D-MEM medium (Invitrogen) containing 10% fetal bovine serum in a 10 cm dish and pcDNA3.1/mShh-N was introduced into the cells using FuGENE6 (Roche Applied Science). Thereafter, the HEK293 cells were cultured in a carbon dioxide gas incubator at 37° C. for 24 hours, and the medium was exchanged with D-MEM medium (Invitrogen) containing 2% fetal bovine serum. After culturing for 48 hr, culture supernatant containing recombinant type mouse Shh-N end fragment was obtained by filtration using a filter ([…]).
Using D-MEM (Invitrogen) containing 10% fetal bovine serum, expression plasmid pcDNA3:1 and Gli reporter plasmid (pGL3/δ-cry promoter, 8× Gli binding site) produced by the method of Experimental Example 1 were introduced into NIH-3T3 cells grown in a 10 cm dish by the use of FuGENE6 (Roche Applied Science).
After culture for 24 hr, the cells were recovered, suspended in D-MEM medium containing 10% fetal bovine serum and supplemented with Geneticin (Life Technologies Oriental, Inc.) to a final concentration of 500 μg/ml, diluted to 10^4 cells/ml, plated on a 96 well plate, and cultured in a carbon dioxide gas incubator at 37° C. to give Geneticin resistant transformed cell line. […]

SMILES | inhibition at 1 µM [%]
CCc1cc2sc(C(=O)NC3CCN(C(=O)CO)CC3)c(OCC(F)(F)F)c2cc1NC(=O)c1ccccc1 [Example 149, 6-ethyl-N-[1-(hydroxyacetyl)piperidin-4-yl]-5-[(phenylcarbonyl)amino]-3-(2,2,2-trifluoroethoxy)-1-benzothiophene-2-carboxamide] | 85
CCc1cc2c(cc1NC(=O)c1ccsc1)c(OC(C)C)c(C(=O)NC1CCN(C(=O)CO)CC1)n2C [Example 148, 6-ethyl-N-[1-(hydroxyacetyl)piperidin-4-yl]-1-methyl-3-(1-methylethoxy)-5-[(thiophen-3-ylcarbonyl)amino]-1H-indole-2-carboxamide] | 98
CCc1cc2c(nc1-c1ccccc1)c(OC(C)C)c(C(=O)NC1CCN(C(=O)CO)CC1)n2C [Example 131, 6-ethyl-N-[1-(hydroxyacetyl)piperidin-4-yl]-1-methyl-3-(1-methylethoxy)-5-phenyl-1H-pyrrolo[3,2-b]pyridine-2-carboxamide] | 82
CCc1cc2c(nc1-c1ccc(F)cc1)c(OC(C)C)c(C(=O)NC1CCN(C(=O)CO)CC1)n2C [Example 132, 6-ethyl-5-(4-fluorophenyl)-N-[1-(hydroxyacetyl)piperidin-4-yl]-1-methyl-3-(1-methylethoxy)-1H-pyrrolo[3,2-b]pyridine-2-carboxamide] | 86
CCc1cc2sc(C(=O)NC3CCN(C(=O)CO)CC3)c(OC(C)C)c2cc1NC(=O)c1ccsc1 [Example 152, 6-ethyl-N-[1-(hydroxyacetyl)piperidin-4-yl]-3-(1-methylethoxy)-5-[(thiophen-3-ylcarbonyl)amino]-1-benzothiophene-2-carboxamide] | 97
CCc1nc2c(cc1NC(=O)c1cccs1)c(OCC(F)(F)F)c(C(=O)NC1CCN(C(=O)CO)CC1)n2C [Example 29, 6-ethyl-N-[1-(hydroxyacetyl)piperidin-4-yl]-1-methyl-5-[(thiophen-2-ylcarbonyl)amino]-3-(2,2,2-trifluoroethoxy)-1H-pyrrolo[2,3-b]pyridine-2-carboxamide] | 95
CCc1nc2c(cc1NC(=O)c1sccc1Cl)c(OC(C)C)c(C(=O)NC1CCN(C(=O)CO)CC1)n2C [Example 63, 5-{[(3-chlorothiophen-2-yl)carbonyl]amino}-6-ethyl-N-[1-(hydroxyacetyl)piperidin-4-yl]-1-methyl-3-(1-methylethoxy)-1H-pyrrolo[2,3-b]pyridine-2-carboxamide] | 96
CCc1nc2c(cc1NC(=O)c1ccsc1)c(OCC(F)(F)F)c(C(=O)NC1CCN(C(=O)CO)CC1)n2C [Example 50, 6-ethyl-N-[1-(hydroxyacetyl)piperidin-4-yl]-1-methyl-5-[(thiophen-3-ylcarbonyl)amino]-3-(2,2,2-trifluoroethoxy)-1H-pyrrolo[2,3-b]pyridine-2-carboxamide] | 94
Cc1nc2c(nc1-c1ccccc1)c(OC(C)C)c(C(=O)NC1CCN(C(=O)CO)CC1)n2C [Example 143, N-[1-(hydroxyacetyl)piperidin-4-yl]-3,5-dimethyl-7-(1-methylethoxy)-2-phenyl-5H-pyrrolo[2,3-b]pyrazine-6-carboxamide] | 96
CCc1nc2c(cc1NC(=O)c1cc(C)nn1C)c(OCC(F)(F)F)c(C(=O)NC1CCN(C(=O)CO)CC1)n2C [Example 57, 5-{[(1,3-dimethyl-1H-pyrazol-5-yl)carbonyl]amino}-6-ethyl-N-[1-(hydroxyacetyl)piperidin-4-yl]-1-methyl-3-(2,2,2-trifluoroethoxy)-1H-pyrrolo[2,3-b]pyridine-2-carboxamide] | 99
CCc1cc2c(cc1NC(=O)c1ccccc1)c(OCC(F)(F)F)c(C(=O)NC1CCN(C(=O)CO)CC1)n2C [Example 146, 6-ethyl-N-[1-(hydroxyacetyl)piperidin-4-yl]-1-methyl-5-[(phenylcarbonyl)amino]-3-(2,2,2-trifluoroethoxy)-1H-indole-2-carboxamide] | 90
CCc1nc2c(cc1NC(=O)c1ccccn1)c(OCC(F)(F)F)c(C(=O)NC1CCN(C(=O)CO)CC1)n2C [Example 42, 6-ethyl-N-[1-(hydroxyacetyl)piperidin-4-yl]-1-methyl-5-[(pyridin-2-ylcarbonyl)amino]-3-(2,2,2-trifluoroethoxy)-1H-pyrrolo[2,3-b]pyridine-2-carboxamide] | 92
CCc1cc2c(cc1NC(=O)c1ccsc1)c(OCC(F)(F)F)c(C(=O)NC1CCN(C(=O)CO)CC1)n2C [Example 147, 6-ethyl-N-[1-(hydroxyacetyl)piperidin-4-yl]-1-methyl-5-[(thiophen-3-ylcarbonyl)amino]-3-(2,2,2-trifluoroethoxy)-1H-indole-2-carboxamide] | 91
CCc1cc2sc(C(=O)NC3CCN(C(=O)CO)CC3)c(OC(C)C)c2cc1NC(=O)c1cccs1 [Example 153, 6-ethyl-N-[1-(hydroxyacetyl)piperidin-4-yl]-3-(1-methylethoxy)-5-[(thiophen-2-ylcarbonyl)amino]-1-benzothiophene-2-carboxamide] | 97
CCc1nc2c(cc1NC(=O)c1cscn1)c(OCC(F)(F)F)c(C(=O)NC1CCN(C(=O)CO)CC1)n2C [Example 56, 6-ethyl-N-[1-(hydroxyacetyl)piperidin-4-yl]-1-methyl-5-[(1,3-thiazol-4-ylcarbonyl)amino]-3-(2,2,2-trifluoroethoxy)-1H-pyrrolo[2,3-b]pyridine-2-carboxamide] | 97
CCc1nc2c(cc1NC(=O)c1ccco1)c(OCC(F)(F)F)c(C(=O)NC1CCN(C(=O)CO)CC1)n2C [Example 52, 6-ethyl-5-[(furan-2-ylcarbonyl)amino]-N-[1-(hydroxyacetyl)piperidin-4-yl]-1-methyl-3-(2,2,2-trifluoroethoxy)-1H-pyrrolo[2,3-b]pyridine-2-carboxamide] | 94
CCc1cc2c(nc1NC(=O)c1ccccc1)c(OCC(F)(F)F)c(C(=O)NC1CCN(C(=O)CO)CC1)n2C [Example 127, 6-ethyl-N-[1-(hydroxyacetyl)piperidin-4-yl]-1-methyl-5-[(phenylcarbonyl)amino]-3-(2,2,2-trifluoroethoxy)-1H-pyrrolo[3,2-b]pyridine-2-carboxamide] | 96
CCc1nc2c(nc1NC(=O)c1ccc(F)cc1)c(OC(C)C)c(C(=O)NC1CCN(C(=O)CO)CC1)n2C [Example 162, 3-ethyl-2-{[(4-fluorophenyl)carbonyl]amino}-N-[1-(hydroxyacetyl)piperidin-4-yl]-5-methyl-7-(1-methylethoxy)-5H-pyrrolo[2,3-b]pyrazine-6-carboxamide] | 100
Cc1nc2c(cc1NC(=O)c1ccc(F)cc1)c(OCC(F)(F)F)c(C(=O)NC1CCN(C(=O)CO)CC1)n2C [Example 48, 5-{[(4-fluorophenyl)carbonyl]amino}-N-[1-(hydroxyacetyl)piperidin-4-yl]-1,6-dimethyl-3-(2,2,2-trifluoroethoxy)-1H-pyrrolo[2,3-b]pyridine-2-carboxamide] | 97
Cc1cc2c(cc1NC(=O)c1ccccc1)c(OCC(F)(F)F)c(C(=O)NC1CCN(C(=O)CO)CC1)n2C [Example 67, N-[1-(hydroxyacetyl)piperidin-4-yl]-1,6-dimethyl-5-[(phenylcarbonyl)amino]-3-(2,2,2-trifluoroethoxy)-1H-indole-2-carboxamide] | 97
